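All cell lines were grown in 96-well plates and treated with compound for 48 hours. Abbreviation: GI50, concentration required for 50% inhibition of growth.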 The source made the active and inactive calls. No stated cut-off is given here; in the data, active = GI50 up to about 1.1 µM and inactive = higher.
Columns and labels:
Assay in all cases: inhibition of tumour cell growth, NCI panel, 48 h
786-0 = tested on: 786-0
A498 = tested on: A498
BT-549 = tested on: BT-549
HCC 2998 = tested on: HCC 2998
HCT-116 = tested on: HCT-116
HL-60 = tested on: HL-60
HT-29 = tested on: HT-29
LOX IMVI = tested on: LOX IMVI
M14 = tested on: M14
NCI-H226 = tested on: NCI-H226
NCI-H23 = tested on: NCI-H23
OVCAR-8 = tested on: OVCAR-8
RXF 393 = tested on: RXF 393
SK-MEL-28 = tested on: SK-MEL-28
SW-620 = tested on: SW-620
T47D = tested on: T47D
UACC-257 = tested on: UACC-257
UACC-62 = tested on: UACC-62
MDA-MB-231 = tested on: MDA-MB-231
SNB-75 = tested on: SNB-75

Compound | GI50 (786-0) | GI50 (A498) | GI50 (BT-549) | GI50 (HCC 2998) | GI50 (HCT-116) | GI50 (HL-60) | GI50 (HT-29) | GI50 (LOX IMVI) | GI50 (M14) | GI50 (NCI-H226) | GI50 (NCI-H23) | GI50 (OVCAR-8) | GI50 (RXF 393) | GI50 (SK-MEL-28) | GI50 (SW-620) | GI50 (T47D) | GI50 (UACC-257) | GI50 (UACC-62) | GI50 (MDA-MB-231) | GI50 (SNB-75)
CC(=O)Nc1ccc2c(c1)/C(=N/c1ccc(C(=O)O)cc1)c1ccccc1-2 | > 100 µM (inactive) | > 100 µM (inactive) | 47.1 µM (inactive) | > 100 µM (inactive) | > 100 µM (inactive) | < 0.01 µM (active) | 59.6 µM (inactive) | 50.9 µM (inactive) | 99.1 µM (inactive) | 39.5 µM (inactive) | > 100 µM (inactive) | 76.7 µM (inactive) | > 100 µM (inactive) | > 100 µM (inactive) | > 100 µM (inactive) | 28 µM (inactive) | > 100 µM (inactive) | 91.4 µM (inactive) |  | 
CCOC(=O)c1nc2ccccc2nc1NCc1ccc(Cl)cc1Cl | > 100 µM (inactive) | > 100 µM (inactive) | > 100 µM (inactive) |  | > 100 µM (inactive) |  | > 100 µM (inactive) | > 100 µM (inactive) | > 100 µM (inactive) | > 100 µM (inactive) | > 100 µM (inactive) | > 100 µM (inactive) | > 100 µM (inactive) |  | > 100 µM (inactive) | > 100 µM (inactive) | > 100 µM (inactive) | > 100 µM (inactive) | > 100 µM (inactive) | 23.6 µM (inactive)
O=C(/C=C/c1csc(-c2ccccc2)n1)NCc1ccc(C(=O)NCCc2ccccc2)cc1 | 8.63 µM (inactive) | 19.8 µM (inactive) | 22.3 µM (inactive) | > 100 µM (inactive) | 26.9 µM (inactive) |  | 5.09 µM (inactive) | 79.4 µM (inactive) | 39.8 µM (inactive) | 25.5 µM (inactive) | 29.7 µM (inactive) | 4.23 µM (inactive) | 2.7 µM (inactive) | 24 µM (inactive) | 74.5 µM (inactive) | 41.2 µM (inactive) | 27.2 µM (inactive) | 31.8 µM (inactive) | 5.38 µM (inactive) | 2.6 µM (inactive)
COc1ccc2c(c1O)[C@@]13CCCC=C1[C@@H](C2)N(C)CC3 | > 100 µM (inactive) |  | 34 µM (inactive) | > 100 µM (inactive) | 36.6 µM (inactive) | 21.4 µM (inactive) | 32.1 µM (inactive) | 41.4 µM (inactive) | 79.6 µM (inactive) | 31.6 µM (inactive) | 89.1 µM (inactive) | > 100 µM (inactive) | > 100 µM (inactive) | > 100 µM (inactive) | 69.3 µM (inactive) | 90.2 µM (inactive) | > 100 µM (inactive) | > 100 µM (inactive) | 77.6 µM (inactive) | 36.7 µM (inactive)
CC(C)CC(NC(=O)C(CI)Cc1ccccc1)C(=O)Nc1ccccc1 (stereo not given) | > 100 µM (inactive) | > 100 µM (inactive) | 7.76 µM (inactive) | > 100 µM (inactive) | > 100 µM (inactive) | > 100 µM (inactive) |  | > 100 µM (inactive) | > 100 µM (inactive) |  | > 100 µM (inactive) | > 100 µM (inactive) | > 100 µM (inactive) | > 100 µM (inactive) | > 100 µM (inactive) |  | > 100 µM (inactive) | > 100 µM (inactive) | > 100 µM (inactive) | > 100 µM (inactive)
COc1ccc2c(c1)CC[C@@H]1[C@@H]2CC[C@]2(C)C(=O)/C(=C/c3ccncc3)C[C@@H]12 | 32.3 µM (inactive) | 27.3 µM (inactive) | 67.5 µM (inactive) | 27.4 µM (inactive) | 28.2 µM (inactive) |  | 33.1 µM (inactive) | 37.8 µM (inactive) | 31.7 µM (inactive) | 63 µM (inactive) | 35.3 µM (inactive) | 51.6 µM (inactive) | 18.2 µM (inactive) | 33.6 µM (inactive) | 31.2 µM (inactive) | 33.3 µM (inactive) | 29.3 µM (inactive) | 31.6 µM (inactive) | 64.7 µM (inactive) | 32.1 µM (inactive)
O=C(O)c1ccccc1/C=C1/Cc2ccc3c(c2C1=O)CCC3 | 49 µM (inactive) | 38.3 µM (inactive) | 22.9 µM (inactive) | 30.5 µM (inactive) | 30.7 µM (inactive) | 20.1 µM (inactive) | 44.7 µM (inactive) | 19.1 µM (inactive) | 35.5 µM (inactive) | 36.2 µM (inactive) | 35.6 µM (inactive) | 48.1 µM (inactive) | 38.2 µM (inactive) | 42.8 µM (inactive) | 58.9 µM (inactive) | 89.3 µM (inactive) | 41.8 µM (inactive) | 38.9 µM (inactive) |  | 39.4 µM (inactive)
Fc1cccc(F)c1C1SCc2nc3ccc(Cl)cc3n21 (stereo not given) | > 100 µM (inactive) |  | > 100 µM (inactive) | > 100 µM (inactive) | > 100 µM (inactive) | 40.5 µM (inactive) | > 85.7 µM (inactive) | > 100 µM (inactive) | > 100 µM (inactive) |  | > 100 µM (inactive) | > 100 µM (inactive) | > 100 µM (inactive) | > 100 µM (inactive) | > 100 µM (inactive) | 95.3 µM (inactive) | > 100 µM (inactive) | > 100 µM (inactive) | > 100 µM (inactive) | 41.1 µM (inactive)
N#Cc1c(-c2ccc(Cl)cc2)c2c(n(C3OC(CO)C(O)C(O)C3O)c1=S)CCCC2 (stereo not given) | 60.8 µM (inactive) | 49.3 µM (inactive) | 25.5 µM (inactive) | > 100 µM (inactive) | 53.1 µM (inactive) | 24.7 µM (inactive) | 73.3 µM (inactive) | 47.2 µM (inactive) | > 100 µM (inactive) | > 100 µM (inactive) | > 100 µM (inactive) | 80.4 µM (inactive) | > 10 µM (inactive) | 78.7 µM (inactive) | 74 µM (inactive) |  | > 100 µM (inactive) |  | 53.6 µM (inactive) | > 100 µM (inactive)
CC(C)(C)c1cc2c(O)c(c1)COCc1cc(C(C)(C)C)cc(c1O)COCc1cc(C(C)(C)C)cc(c1O)COC2 | 19.1 µM (inactive) | 46.6 µM (inactive) | > 100 µM (inactive) | > 100 µM (inactive) | 97.3 µM (inactive) | 31.1 µM (inactive) |  | 29.4 µM (inactive) | 88.5 µM (inactive) | > 100 µM (inactive) | 46.1 µM (inactive) | > 100 µM (inactive) | 32.4 µM (inactive) | > 100 µM (inactive) | > 100 µM (inactive) | > 100 µM (inactive) | > 100 µM (inactive) | > 100 µM (inactive) |  | 9.35 µM (inactive)
CC1=NN(c2nc(N)nc(-c3sccc3N)n2)C(C)(C)C1 | > 100 µM (inactive) | > 100 µM (inactive) | 56.1 µM (inactive) | > 100 µM (inactive) | 96.4 µM (inactive) | 71.3 µM (inactive) | > 100 µM (inactive) | 90.4 µM (inactive) | 23.9 µM (inactive) | 33.1 µM (inactive) | 64.9 µM (inactive) | 62.5 µM (inactive) |  | 40.2 µM (inactive) | > 100 µM (inactive) |  | > 100 µM (inactive) | 58.3 µM (inactive) | 73.1 µM (inactive) | 36.3 µM (inactive)
Cc1ccc(-n2c(Cn3nnc(-c4cccnc4)n3)nn(C3OC(COC(=O)c4ccccc4)C(OC(=O)c4ccccc4)C3OC(=O)c3ccccc3)c2=S)cc1 (stereo not given) | > 100 µM (inactive) |  | > 100 µM (inactive) | > 100 µM (inactive) | > 100 µM (inactive) |  | > 100 µM (inactive) | > 100 µM (inactive) | > 100 µM (inactive) | > 100 µM (inactive) | > 100 µM (inactive) | > 100 µM (inactive) | > 100 µM (inactive) | > 100 µM (inactive) | > 100 µM (inactive) | > 100 µM (inactive) | > 100 µM (inactive) | > 100 µM (inactive) | > 100 µM (inactive) | 52.6 µM (inactive)
N#CC1=C(N)Nc2nc3ccccc3n2C1c1ccccc1 (stereo not given) | 34 µM (inactive) | 21.6 µM (inactive) | 23.8 µM (inactive) |  | 29.8 µM (inactive) | > 100 µM (inactive) | 33.7 µM (inactive) | 62.7 µM (inactive) | > 100 µM (inactive) |  | > 100 µM (inactive) | 55.1 µM (inactive) | 16.1 µM (inactive) |  | 55.6 µM (inactive) | 20.2 µM (inactive) | > 100 µM (inactive) | 56.6 µM (inactive) | 45.9 µM (inactive) | 
COc1cc(C2SCCCCCCCCCCSC(c3ccc(O)c(OC)c3)SCCCCCCCCCCS2)ccc1O (stereo not given) | > 100 µM (inactive) | > 100 µM (inactive) | > 100 µM (inactive) |  | > 100 µM (inactive) |  | > 100 µM (inactive) | > 100 µM (inactive) | > 100 µM (inactive) | > 100 µM (inactive) | > 100 µM (inactive) | > 100 µM (inactive) | > 100 µM (inactive) | > 100 µM (inactive) | > 100 µM (inactive) | > 100 µM (inactive) | > 100 µM (inactive) | > 100 µM (inactive) | > 100 µM (inactive) | 52.6 µM (inactive)
CC(C)C[C@H](NC(=O)[C@@H](N)Cc1cccc2ccccc12)B(O)O | < 0.0216 µM (active) | < 0.0189 µM (active) | 0.0203 µM (active) | 0.173 µM (active) | < 0.0165 µM (active) |  | < 0.0178 µM (active) | < 0.0179 µM (active) |  | < 0.0132 µM (active) | 0.0249 µM (active) | 0.0719 µM (active) | < 0.017 µM (active) | < 0.0149 µM (active) | < 0.015 µM (active) | 0.0168 µM (active) | 0.0311 µM (active) | 0.0482 µM (active) | 0.0354 µM (active) | 0.0259 µM (active)

— ChEMBL document CHEMBL1201862, “PubChem BioAssay data set” (2004)
